# ChEMBL document CHEMBL1146126 (Bioorg Med Chem Lett, 2006)
# pEC50, pIC50: −log10 of the molar value.
# Molecular target: T1, Prostaglandin E2 receptor EP4 subtype (Rattus norvegicus, UniProt P43114)
# Assay: Binding affinity to rat EP4 receptor expressed in HEK293 cells
# Assay type: cell-based
# T1 sequence (P43114 whole entry): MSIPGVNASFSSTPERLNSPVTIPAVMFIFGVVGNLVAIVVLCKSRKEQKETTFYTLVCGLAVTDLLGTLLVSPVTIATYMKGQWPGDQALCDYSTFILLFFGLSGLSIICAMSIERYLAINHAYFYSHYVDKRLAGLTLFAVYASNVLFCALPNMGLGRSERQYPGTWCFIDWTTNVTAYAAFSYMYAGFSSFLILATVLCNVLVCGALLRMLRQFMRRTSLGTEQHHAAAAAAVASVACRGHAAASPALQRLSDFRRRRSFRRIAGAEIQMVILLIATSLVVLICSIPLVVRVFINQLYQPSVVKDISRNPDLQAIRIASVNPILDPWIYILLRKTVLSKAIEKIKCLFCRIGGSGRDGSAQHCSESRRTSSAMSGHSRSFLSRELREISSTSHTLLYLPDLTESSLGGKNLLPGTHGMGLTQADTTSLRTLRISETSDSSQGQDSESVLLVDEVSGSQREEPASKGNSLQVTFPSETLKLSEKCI
row,SMILES,pIC50
1,O=C(O)c1ccc(CCCN2C(=O)CC[C@@H]2CCC(O)Cc2ccc3ccccc3c2)s1 (stereo partly drawn),7.19
2,O=C(O)c1ccc(CCCN2C(=O)CCC2CCC(O)Cc2cccc(Cl)c2)cc1 (stereo not drawn),7.38
3,O=C(O)c1ccc(CCCN2C(=O)CC[C@@H]2CC[C@@H](O)Cc2cccc(C(F)(F)F)c2)cc1,7.15
4,O=C(O)CCCCCCN1C(=O)CC[C@@H]1CC[C@@H](O)Cc1cccc(-c2ccccc2)c1,6.47

# Next, values leading:
row,pIC50,SMILES
1,6.66,O=C(O)c1ccc(CCCN2C(=O)CCC2CCC(O)Cc2cccc(Oc3ccccc3)c2)cc1 (stereo not drawn)
2,7.77,O=C(O)c1ccc(CCCN2C(=O)CC[C@@H]2CCC(O)Cc2cccc(F)c2)s1 (stereo partly drawn)
3,7.23,O=C(O)CCCCCCN1C(=O)CC[C@@H]1CC[C@@H](O)Cc1cccc(OC(F)(F)F)c1

# Molecular target: T1, Prostaglandin E2 receptor EP4 subtype
# Assay: Activity at rat EP4 transfected in HEK293 cells by cAMP accumulation
# Assay type: functional, cell-based
row,SMILES,pEC50
1,O=C(O)c1ccc(CCCN2C(=O)CC[C@@H]2CCC(O)Cc2ccc3ccccc3c2)s1 (stereo partly drawn),6.30
2,O=C(O)c1ccc(CCCN2C(=O)CCC2CCC(O)Cc2cccc(Cl)c2)cc1 (stereo not drawn),6.37
3,O=C(O)c1ccc(CCCN2C(=O)CC[C@@H]2CC[C@@H](O)Cc2cccc(C(F)(F)F)c2)cc1,6.98
4,O=C(O)CCCCCCN1C(=O)CC[C@@H]1CC[C@@H](O)Cc1cccc(-c2ccccc2)c1,6.71

# Further lines, results first:
row,pEC50,SMILES
1,8.62,O=C(O)c1ccc(CCCN2C(=O)CC[C@@H]2CCC(O)Cc2cccc(F)c2)s1 (stereo partly drawn)
2,7.30,O=C(O)CCCCCCN1C(=O)CC[C@@H]1CC[C@@H](O)Cc1cccc(OC(F)(F)F)c1

# Molecular target: Prostaglandin E2 receptor EP2 subtype (Rattus norvegicus, UniProt Q62928)
# Sequence (Q62928 whole entry): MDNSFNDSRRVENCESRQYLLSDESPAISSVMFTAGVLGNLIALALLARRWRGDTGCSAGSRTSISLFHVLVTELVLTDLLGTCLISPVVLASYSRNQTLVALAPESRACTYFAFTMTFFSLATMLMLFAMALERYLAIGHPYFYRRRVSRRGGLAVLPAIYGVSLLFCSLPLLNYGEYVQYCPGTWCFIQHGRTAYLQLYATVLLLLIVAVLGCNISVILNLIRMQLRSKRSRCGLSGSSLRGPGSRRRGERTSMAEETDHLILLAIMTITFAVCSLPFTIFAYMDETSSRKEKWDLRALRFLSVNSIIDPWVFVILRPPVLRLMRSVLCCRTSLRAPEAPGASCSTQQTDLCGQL
# Assay: Binding affinity to rat EP2 receptor expressed in HEK293 cells
# Assay type: cell-based
row,SMILES,pIC50
1,O=C(O)c1ccc(CCCN2C(=O)CC[C@@H]2CCC(O)Cc2ccc3ccccc3c2)s1 (stereo partly drawn),< 5.49
2,O=C(O)c1ccc(CCCN2C(=O)CCC2CCC(O)Cc2cccc(Cl)c2)cc1 (stereo not drawn),< 5.49
3,O=C(O)c1ccc(CCCN2C(=O)CC[C@@H]2CC[C@@H](O)Cc2cccc(C(F)(F)F)c2)cc1,< 5.49
4,O=C(O)CCCCCCN1C(=O)CC[C@@H]1CC[C@@H](O)Cc1cccc(-c2ccccc2)c1,< 5.49

# The next lines start with the values.
row,pIC50,SMILES
1,< 5.49,O=C(O)c1ccc(CCCN2C(=O)CCC2CCC(O)Cc2cccc(Oc3ccccc3)c2)cc1 (stereo not drawn)
2,6.19,O=C(O)c1ccc(CCCN2C(=O)CC[C@@H]2CCC(O)Cc2cccc(F)c2)s1 (stereo partly drawn)
3,< 5.49,O=C(O)CCCCCCN1C(=O)CC[C@@H]1CC[C@@H](O)Cc1cccc(OC(F)(F)F)c1

# Molecular target: Prostaglandin E2 receptor EP4 subtype (Rattus norvegicus) (UniProt P43114)
# Sequence (P43114 whole entry): as the sequence (P43114 whole entry) above
# Assay: Activity at rat EP4 transfected in HEK293 cells by cAMP accumulation compared to PGE2
# Assay type: functional, cell-based
row,SMILES,Activity [%]
1,O=C(O)c1ccc(CCCN2C(=O)CC[C@@H]2CCC(O)Cc2ccc3ccccc3c2)s1 (stereo partly drawn),73
2,O=C(O)c1ccc(CCCN2C(=O)CCC2CCC(O)Cc2cccc(Cl)c2)cc1 (stereo not drawn),106
3,O=C(O)c1ccc(CCCN2C(=O)CC[C@@H]2CC[C@@H](O)Cc2cccc(C(F)(F)F)c2)cc1,105
4,O=C(O)CCCCCCN1C(=O)CC[C@@H]1CC[C@@H](O)Cc1cccc(-c2ccccc2)c1,101

# Second part, the compound after the results:
row,Activity [%],SMILES
1,97,O=C(O)c1ccc(CCCN2C(=O)CC[C@@H]2CCC(O)Cc2cccc(F)c2)s1 (stereo partly drawn)
2,78,O=C(O)CCCCCCN1C(=O)CC[C@@H]1CC[C@@H](O)Cc1cccc(OC(F)(F)F)c1

# Molecular target: T2, Prostaglandin E2 receptor EP1 subtype (Homo sapiens, UniProt P34995)
# T2 sequence (P34995 whole entry): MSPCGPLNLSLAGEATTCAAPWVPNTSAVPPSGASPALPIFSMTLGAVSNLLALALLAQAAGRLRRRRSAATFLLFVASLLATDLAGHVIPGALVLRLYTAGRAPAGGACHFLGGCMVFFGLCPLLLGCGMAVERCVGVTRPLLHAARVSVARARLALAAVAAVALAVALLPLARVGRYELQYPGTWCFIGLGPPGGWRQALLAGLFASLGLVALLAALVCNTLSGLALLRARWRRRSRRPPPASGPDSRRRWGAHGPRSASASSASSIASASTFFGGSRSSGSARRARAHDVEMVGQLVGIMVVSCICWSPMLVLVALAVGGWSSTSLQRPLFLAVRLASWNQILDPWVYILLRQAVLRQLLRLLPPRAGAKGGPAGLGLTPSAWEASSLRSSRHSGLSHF
# Assay: Binding affinity to human EP1 receptor expressed in HEK293 cells
# Assay type: cell-based
row,pIC50,SMILES
1,< 5.49,O=C(O)c1ccc(CCCN2C(=O)CCC2CCC(O)Cc2cccc(Cl)c2)cc1 (stereo not drawn)

# Molecular target: T3, Prostaglandin E2 receptor EP3 subtype (Homo sapiens, UniProt P43115)
# T3 sequence (P43115 whole entry): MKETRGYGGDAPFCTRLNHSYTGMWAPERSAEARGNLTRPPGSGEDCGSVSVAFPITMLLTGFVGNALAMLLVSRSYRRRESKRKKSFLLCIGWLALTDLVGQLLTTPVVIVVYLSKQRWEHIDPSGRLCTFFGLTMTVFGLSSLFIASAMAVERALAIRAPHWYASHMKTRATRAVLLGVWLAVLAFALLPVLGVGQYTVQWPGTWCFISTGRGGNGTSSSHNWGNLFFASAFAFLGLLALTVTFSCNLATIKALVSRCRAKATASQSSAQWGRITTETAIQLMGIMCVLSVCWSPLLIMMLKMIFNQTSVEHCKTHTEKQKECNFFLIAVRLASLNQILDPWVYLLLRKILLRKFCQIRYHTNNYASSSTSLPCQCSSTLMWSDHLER
# Assay: Binding affinity to human EP3 receptor expressed in HEK293 cells
# Assay type: cell-based
row,pIC50,SMILES
1,< 5.49,O=C(O)c1ccc(CCCN2C(=O)CCC2CCC(O)Cc2cccc(Cl)c2)cc1 (stereo not drawn)
